According to patent US11014956B2, “Compositions and methods for altering second messenger signaling” (Memorial Sloan Kettering Cancer Center, priority 2013, dated 2021):

How the values were obtained:
cGAS = biological target: T1, cGAS (Mus musculus, UniProt Q8C6L5); assay: cGAS activity assay, c[G(2′,5′)pA(3′,5′)p] formation by thin-layer chromatography; format: biochemical; conditions: cGAS plus dsDNA
T1 construct: Purified recombinant full length (fl, amino acids 1-507) and truncated (tr, amino acids 147-507) murine cGAS; His6-SUMO (N, cleaved yes); made in house; host or cells: E. coli BL21 (DE3) RIL
Source text: To validate the structural results, we established an activity assay using thin-layer chromatography (FIG. 11) and monitored cyclic dinucleotide c[G(2′,5′)pA(3′,5′)p] formation from ATP and GTP using purified recombinant full-length and truncated cGAS proteins. cGAS required the presence of dsDNA and Mg^2+ or Mn^2+ for activity (FIG. 5A-B). […] The trace amount of c[G(2′,5′)pA(3′,5′)p]detected for the specific ssDNA used in this experiment was attributable to a stretch of sequence complementarity, and the substitution of G by 8-oxoguanine (8-oxoG) was sufficient to destabilize its predicted interaction and eliminate the residual cGAS activity.
Purified recombinant full length (fl, amino acids 1-507) and truncated (tr, amino acids 147-507) murine cGAS, including truncated mutant versions 1-6, were incubated in 20 μL reactions containing: 1 μM cGAS, 3.3 μM dsDNA, 5 mM MgCl2, 150 mM NaCl, 20 mM Tris-HCl, pH 7.5 at 25° C., 1 mM DTT, 10% glycerol, 1 mM each of nucleotides (typically ATP and GTP), and α^32P or γ^32P radiolabelled NTPs or dNTPs at 37° C. for 40 min. Reactions were stopped by addition of 20 μL of 50 mM EDTA. 2 μL of reaction solution was spotted onto high-performance TLC plates (HPTLC silica gel, 60 Å pores, F254, 10×10 cm, cat #1.05628.0001, EMD Millipore) and products were separated with Solvent 1 (NH4HCO3:C2H5OH:H2O [0.2 M:30%:70%], w:v:v) or 2 (NH4HCO3:C2H5OH:H2O [0.025 M:30%:70%], w:v:v) at 25° C. for 1 h. Reaction products were visualized by UV (254 nm) and phosphorimaging (Typhoon FLA 9500, GE Healthcare). Images were processed using Adobe Photoshop and Illustrator CS5. The TLC conditions used were largely based on a protocol established to separate 3′,5′ cAMP (Higashida et al, 2012).
The yield of c[G(2′,5′)pA(3′,5′)p] generated was calculated by densitometry analysis of TLC experiments, using FIJI (ImageJ 1.47i) or spectrophotemetrically (absorbance at 260 nm, E260=25.4×10^3) after purification from HPLC. For densitometry analyses, the fraction of α^32P-labelled c[G(2′,5′)pA(3′,5′)p] over total radioactivity per lane (c[G(2′,5′)pA(3′,5′)p]plus remaining α^32P-labelled ATP or GTP) was calculated.

THP 1 cells = conditions: concentrations as low as; cited from earlier work
Raw264.7 cells = conditions: concentrations as low as; cited from earlier work

T1 sequence (Q8C6L5 whole entry, the tested form may be a part): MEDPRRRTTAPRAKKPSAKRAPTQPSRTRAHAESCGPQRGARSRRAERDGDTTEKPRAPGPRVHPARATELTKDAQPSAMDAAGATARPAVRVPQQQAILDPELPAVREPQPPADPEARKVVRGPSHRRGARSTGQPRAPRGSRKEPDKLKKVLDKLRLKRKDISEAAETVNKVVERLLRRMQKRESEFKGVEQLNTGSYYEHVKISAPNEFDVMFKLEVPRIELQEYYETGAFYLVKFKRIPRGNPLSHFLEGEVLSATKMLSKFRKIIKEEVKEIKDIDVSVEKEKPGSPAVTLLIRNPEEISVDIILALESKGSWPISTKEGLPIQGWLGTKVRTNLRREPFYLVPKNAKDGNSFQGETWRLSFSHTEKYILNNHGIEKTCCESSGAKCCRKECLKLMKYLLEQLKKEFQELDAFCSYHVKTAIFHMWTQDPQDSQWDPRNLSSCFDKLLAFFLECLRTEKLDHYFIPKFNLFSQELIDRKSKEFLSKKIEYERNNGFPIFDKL

Row | cyclic dinucleotide formation with the nucleotide as cGAS substrate in place of GTP or ATP (in words) (cGAS) | SMILES | concentration at which production of interferon is stimulated (THP 1 cells) | concentration at which production of interferon is stimulated (Raw264.7 cells)
1 | no product or intermediate formation | Nc1ncnc2c1ncn2[C@@H]1O[C@H](COP(=O)(O)O)[C@@H](O)[C@H]1O [AMP, reference compound] | – | –
2 | – | Nc1nc2c(ncn2[C@@H]2O[C@@H]3COP(=O)(O)O[C@H]4[C@@H](O)[C@H](n5cnc6c(N)ncnc65)O[C@@H]4COP(=O)(O)O[C@H]3[C@H]2O)c(=O)[nH]1 [c[G(3′,5′)pA(3′,5′)p]] | 10 nM | 10 nM
